Values quoted from earlier work, collected in patent US20250152507A1, “SUBLINGUAL COMPOSITIONS FOR ERECTILE DYSFUNCTION” (Woody's Medical LLC, priority 2023, published 2025).

Tested on: men with mild ED
Conditions: reported in C. McMahon et al., BMJ 2006

For `CN1CCc2cccc3c2[C@H]1Cc1ccc(O)c(O)c1-3` [Apomorphine, apomorphine], which “effect in men with mild ED” value is on record?
Its value is “only a small effect”.
